Measured values from patent publication US12540129B2, “KIF18A inhibitors” (AMGEN INC., priority 2019, dated 2026).

Target: T1, Recombinant human KIF18A (1-467 His-tagged) protein (Homo sapiens, UniProt Q8NI77)
T1 construct: Recombinant human KIF18A (1-467 His-tagged) protein; His; made in house
Assay: KIF18A Enzyme Assay: microtubule-stimulated ATPase activity (ADP-Glo)
Type: biochemical
Details: 30 nM KIF18A, 75 μM ATP
Excerpt: KIF18A Enzyme Assay: Microtubule-stimulated ATPase activity assay is used to measure KIF18A enzyme activity after treatment with compound. Compounds were 2-fold serially diluted in DMSO (Sigma Inc) over 22-point concentration range. Recombinant human KIF18A (1-467 His-tagged) protein was expressed using a baculovirus system and purified by affinity chromatography by Amgen Inc. Concentrations of KIF18A protein, microtubules (MT), and ATP in the reaction were optimized for standardized homogenous enzyme assay using ADP-Glorm Kinase/ATPase Assay Kit (Promega Inc). The assay measures ADP formed from the ATPase reaction. […] Read luminescence using EnVision microplate reader with ultra-luminescence module (Perkin Elmer Inc). Concentration-response curve-fitting and IC50 determination was performed using Genedata Screener Software (Standard 15.0.1, Genedata Inc) with a four-parameter logistic regression fit model.
Table A provides data for compounds exemplified in the present application and priority document thereof, as representative compounds of the present invention, as follows: chemical name (as named by either ACD software or ChemDraw (Professional 15.0)) and biological data (IC50 in μM). Ex. # refers to Example No.

T1 sequence (Q8NI77 1-467): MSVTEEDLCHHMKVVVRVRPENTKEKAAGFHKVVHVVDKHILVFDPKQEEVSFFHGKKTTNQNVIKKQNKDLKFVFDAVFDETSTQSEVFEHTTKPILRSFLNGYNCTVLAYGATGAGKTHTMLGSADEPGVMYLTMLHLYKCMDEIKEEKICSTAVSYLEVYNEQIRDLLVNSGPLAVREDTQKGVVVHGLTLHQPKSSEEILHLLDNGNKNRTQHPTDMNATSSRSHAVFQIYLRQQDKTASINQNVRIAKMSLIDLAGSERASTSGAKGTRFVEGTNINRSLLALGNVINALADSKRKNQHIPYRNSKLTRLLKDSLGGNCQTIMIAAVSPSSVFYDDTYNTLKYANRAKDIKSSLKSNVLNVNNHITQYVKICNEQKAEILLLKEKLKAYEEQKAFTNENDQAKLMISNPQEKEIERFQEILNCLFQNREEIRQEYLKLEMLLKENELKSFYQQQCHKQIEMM
T1 sequence (P02550 whole entry partner): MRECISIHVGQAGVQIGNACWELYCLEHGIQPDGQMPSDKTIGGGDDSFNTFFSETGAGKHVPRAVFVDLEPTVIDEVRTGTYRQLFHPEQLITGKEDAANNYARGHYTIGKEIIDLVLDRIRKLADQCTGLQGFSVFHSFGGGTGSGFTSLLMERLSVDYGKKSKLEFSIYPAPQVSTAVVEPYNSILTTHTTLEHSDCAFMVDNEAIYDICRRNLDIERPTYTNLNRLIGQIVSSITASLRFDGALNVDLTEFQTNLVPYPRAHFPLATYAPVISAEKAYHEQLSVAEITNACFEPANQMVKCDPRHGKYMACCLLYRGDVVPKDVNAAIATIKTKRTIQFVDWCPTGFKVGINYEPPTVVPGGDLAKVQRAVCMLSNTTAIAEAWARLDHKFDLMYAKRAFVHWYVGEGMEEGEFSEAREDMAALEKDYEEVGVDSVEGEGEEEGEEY
T1 sequence (P02554 whole entry partner): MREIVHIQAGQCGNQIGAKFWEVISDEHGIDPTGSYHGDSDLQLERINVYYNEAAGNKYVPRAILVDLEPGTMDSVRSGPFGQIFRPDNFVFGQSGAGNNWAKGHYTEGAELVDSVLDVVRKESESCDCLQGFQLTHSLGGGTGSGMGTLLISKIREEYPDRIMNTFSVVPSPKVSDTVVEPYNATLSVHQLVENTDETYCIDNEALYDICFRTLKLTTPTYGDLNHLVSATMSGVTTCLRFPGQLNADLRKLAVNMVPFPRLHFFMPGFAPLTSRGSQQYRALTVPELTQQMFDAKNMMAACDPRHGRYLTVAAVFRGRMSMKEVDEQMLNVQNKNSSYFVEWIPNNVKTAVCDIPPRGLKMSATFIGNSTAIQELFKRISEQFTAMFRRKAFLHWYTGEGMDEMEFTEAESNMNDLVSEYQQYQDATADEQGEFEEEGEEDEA

Structure (SMILES)	IC50
CC(C)(CF)NS(=O)(=O)c1cccc(NC(=O)c2cccnc2N2CCC3(CC2)CC3)c1 [Example 101-8, N-(3-(N-(1-fluoro-2-methylpropan-2-yl)sulfamoyl)phenyl)-2-(6-azaspiro[2.5]octan-6-yl)nicotinamide]	279 nM
O=C(Nc1cccc(S(=O)(=O)NC2CC(F)(F)C2)c1)c1cccnc1N1CCC2(CC1)CC2 [Example 101-9, N-(3-(N-(3,3-difluorocyclobutyl)sulfamoyl)phenyl)-2-(6-azaspiro[2.5]octan-6-yl)nicotinamide]	474 nM
O=C(Nc1cccc(S(=O)(=O)Nc2ccc(F)cc2)c1)c1cccnc1N1CCC2(CC1)CC2 [Example 101-10, N-(3-(N-(4-fluorophenyl)sulfamoyl)phenyl)-2-(6-azaspiro[2.5]octan-6-yl)nicotinamide]	393 nM
CC1(C)CCN(c2ccc(C(=O)Nc3cccc(S(=O)(=O)NC(C)(C)C)c3)c(N3CCC4(CC3)CC4)n2)C1 [Example 102-1, N-(3-(N-(tert-butyl)sulfamoyl)phenyl)-6-(3,3-dimethylpyrrolidin-1-yl)-2-(6-azaspiro[2.5]octan-6-yl)nicotinamide]	196 nM
CC(C)(C)NS(=O)(=O)c1cccc(NC(=O)c2ccc(N3CCC(F)(F)C3)nc2N2CCC3(CC2)CC3)c1 [Example 102-2, N-(3-(N-(tert-butyl)sulfamoyl)phenyl)-6-(3,3-difluoropyrrolidin-1-yl)-2-(6-azaspiro[2.5]octan-6-yl)nicotinamide]	302 nM
CC(C)(C)NS(=O)(=O)c1cccc(NC(=O)c2ccc(N3CCCC3(C)C)nc2N2CCC3(CC2)CC3)c1 [Example 102-3, N-(3-(N-(tert-butyl)sulfamoyl)phenyl)-6-(2,2-dimethylpyrrolidin-1-yl)-2-(6-azaspiro[2.5]octan-6-yl)nicotinamide]	342 nM
CC(C)(C)NS(=O)(=O)c1cccc(NC(=O)c2ccc(N3CC[C@H](O)C3)nc2N2CCC3(CC2)CC3)c1 [Example 102-4, (S)-N-(3-(N-(tert-butyl)sulfamoyl)phenyl)-6-(3-hydroxypyrrolidin-1-yl)-2-(6-azaspiro[2.5]octan-6-yl)nicotinamide]	234 nM
CC(C)(C)NS(=O)(=O)c1cccc(NC(=O)c2ccc(N3C[C@H]4C[C@H]4C3)nc2N2CCC3(CC2)CC3)c1 [Example 102-5]	191 nM
CC(C)(C)NS(=O)(=O)c1cccc(NC(=O)c2ccc(N3CC[C@@H]4C[C@@H]43)nc2N2CCC3(CC2)CC3)c1 [Example 102-6, 6-((1S,5R)-2-azabicyclo[3.1.0]hexan-2-yl)-N-(3-(N-(tert-butyl)sulfamoyl)phenyl)-2-(6-azaspiro[2.5]octan-6-yl)nicotinamide]	200 nM
CC(C)(C)NS(=O)(=O)c1cccc(NC(=O)c2ccc(N3CCOCC3)nc2N2CCC3(CC2)CC3)c1 [Example 102-7, N-(3-(N-(tert-butyl)sulfamoyl)phenyl)-6-morpholino-2-(6-azaspiro[2.5]octan-6-yl)nicotinamide]	238 nM
CC(C)(C)NS(=O)(=O)c1cccc(NC(=O)c2ccc(N3C[C@H]4C[C@@H]3CO4)nc2N2CCC3(CC2)CC3)c1 [Example 102-8, 6-((1R,4R)-2-oxa-5-azabicyclo[2.2.1]heptan-5-yl)-N-(3-(N-(tert-butyl)sulfamoyl)phenyl)-2-(6-azaspiro[2.5]octan-6-yl)nicotinamide]	104 nM
CC(C)(C)NS(=O)(=O)c1cccc(NC(=O)c2ccc(N3CC[C@H]4CC[C@@H]3O4)nc2N2CCC3(CC2)CC3)c1 [Example 102-9, 6-((1S,5R)-8-oxa-2-azabicyclo[3.2.1]octan-2-yl)-N-(3-(N-(tert-butyl)sulfamoyl)phenyl)-2-(6-azaspiro[2.5]octan-6-yl)nicotinamide]	127 nM
CC(C)(C)NS(=O)(=O)c1cccc(NC(=O)c2ccc(N3CCC3)nc2N2CCC3(CC2)CC3)c1 [Example 102-10, 6-(azetidin-1-yl)-N-(3-(N-(tert-butyl)sulfamoyl)phenyl)-2-(6-azaspiro[2.5]octan-6-yl)nicotinamide]	118 nM
CC(C)(C)NS(=O)(=O)c1cccc(NC(=O)c2ccc(N3CC(C#N)C3)nc2N2CCC3(CC2)CC3)c1 [Example 102-11, N-(3-(N-(tert-butyl)sulfamoyl)phenyl)-6-(3-cyanoazetidin-1-yl)-2-(6-azaspiro[2.5]octan-6-yl)nicotinamide]	159 nM
COC1CN(c2ccc(C(=O)Nc3cccc(S(=O)(=O)NC(C)(C)C)c3)c(N3CCC4(CC3)CC4)n2)C1 [Example 102-12, N-(3-(N-(tert-butyl)sulfamoyl)phenyl)-6-(3-methoxyazetidin-1-yl)-2-(6-azaspiro[2.5]octan-6-yl)nicotinamide]	591 nM
CC1(O)CN(c2ccc(C(=O)Nc3cccc(S(=O)(=O)NC(C)(C)C)c3)c(N3CCC4(CC3)CC4)n2)C1 [Example 102-13, N-(3-(N-(tert-butyl)sulfamoyl)phenyl)-6-(3-hydroxy-3-methylazetidin-1-yl)-2-(6-azaspiro[2.5]octan-6-yl)nicotinamide]	196 nM
CC(C)(C)NS(=O)(=O)c1cccc(NC(=O)c2ccc(N3CC(O)(C(F)(F)F)C3)nc2N2CCC3(CC2)CC3)c1 [Example 102-14, N-(3-(N-(tert-butyl)sulfamoyl)phenyl)-6-(3-hydroxy-3-(trifluoromethyl)azetidin-1-yl)-2-(6-azaspiro[2.5]octan-6-yl)nicotinamide]	280 nM
CC(C)(C)NS(=O)(=O)c1cccc(NC(=O)c2ccc(N3CC(S(C)(=O)=O)C3)nc2N2CCC3(CC2)CC3)c1 [Example 102-15, N-(3-(N-(tert-butyl)sulfamoyl)phenyl)-6-(3-(methylsulfonyl)azetidin-1-yl)-2-(6-azaspiro[2.5]octan-6-yl)nicotinamide]	182 nM
CC(C)(C)NS(=O)(=O)c1cccc(NC(=O)c2ccc(NC3CCC3)nc2N2CCC3(CC2)CC3)c1 [Example 102-16, N-(3-(N-(tert-butyl)sulfamoyl)phenyl)-6-(cyclobutylamino)-2-(6-azaspiro[2.5]octan-6-yl)nicotinamide]	221 nM

Results, then the molecule that gave them:

IC50	Structure (SMILES)
294 nM	CC(C)(C)NS(=O)(=O)c1cccc(NC(=O)c2ccc(NC3CC(F)(F)C3)nc2N2CCC3(CC2)CC3)c1 [Example 102-17, N-(3-(N-(tert-butyl)sulfamoyl)phenyl)-6-((3,3-difluorocyclobutyl)amino)-2-(6-azaspiro[2.5]octan-6-yl)nicotinamide]
107 nM	CC(C)(C)NS(=O)(=O)c1cccc(NC(=O)c2ccc(N[C@@H]3CCC[C@H]3O)nc2N2CCC3(CC2)CC3)c1 [Example 102-18, N-(3-(N-(tert-butyl)sulfamoyl)phenyl)-6-(((1R,2R)-2-hydroxycyclopentyl)amino)-2-(6-azaspiro[2.5]octan-6-yl)nicotinamide]
160 nM	CC(C)(C)NS(=O)(=O)c1cccc(NC(=O)c2ccc(N[C@H]3CCC[C@H]3O)nc2N2CCC3(CC2)CC3)c1 [Example 102-19, N-(3-(N-(tert-butyl)sulfamoyl)phenyl)-6-(((1S,2R)-2-hydroxycyclopentyl)amino)-2-(6-azaspiro[2.5]octan-6-yl)nicotinamide]
103 nM	CC(C)(C)NS(=O)(=O)c1cccc(NC(=O)c2ccc(N[C@H]3COC[C@@H]3O)nc2N2CCC3(CC2)CC3)c1 [Example 102-20, N-(3-(N-(tert-butyl)sulfamoyl)phenyl)-6-(((3S,4R)-4-hydroxytetrahydrofuran-3-yl)amino)-2-(6-azaspiro[2.5]octan-6-yl)nicotinamide]
134 nM	CC(C)(C)NS(=O)(=O)c1cccc(NC(=O)c2ccc(N[C@@H]3CCOC3)nc2N2CCC3(CC2)CC3)c1 [Example 102-21, (R)-N-(3-(N-(tert-butyl)sulfamoyl)phenyl)-2-(6-azaspiro[2.5]octan-6-yl)-6-((tetrahydrofuran-3-yl)amino)nicotinamide]
116 nM	CC(C)(C)NS(=O)(=O)c1cccc(NC(=O)c2ccc(N[C@@H]3CC[C@H](O)C3)nc2N2CCC3(CC2)CC3)c1 [Example 102-22, N-(3-(N-(tert-butyl)sulfamoyl)phenyl)-6-(((1R,3S)-3-hydroxycyclopentyl)amino)-2-(6-azaspiro[2.5]octan-6-yl)nicotinamide]
185 nM	CC(C)(C)NS(=O)(=O)c1cccc(NC(=O)c2ccc(N[C@H]3CC[C@H](O)C3)nc2N2CCC3(CC2)CC3)c1 [Example 102-23, N-(3-(N-(tert-butyl)sulfamoyl)phenyl)-6-(((1S,3S)-3-hydroxycyclopentyl)amino)-2-(6-azaspiro[2.5]octan-6-yl)nicotinamide]
259 nM	CC(C)(C)NS(=O)(=O)c1cccc(NC(=O)c2ccc(N[C@@H]3CCOC[C@H]3O)nc2N2CCC3(CC2)CC3)c1 [Example 102-24, N-(3-(N-(tert-butyl)sulfamoyl)phenyl)-6-(((3S,4R)-3-hydroxytetrahydro-2H-pyran-4-yl)amino)-2-(6-azaspiro[2.5]octan-6-yl)nicotinamide]
84 nM	CC(C)(C)NS(=O)(=O)c1cccc(NC(=O)c2ccc(NC3COC3)nc2N2CCC3(CC2)CC3)c1 [Example 102-25, N-(3-(N-(tert-butyl)sulfamoyl)phenyl)-6-(oxctan-3-ylamino)-2-(6-azaspiro[2.5]octan-6-yl)nicotinamide]
56 nM	CC(C)(C)NS(=O)(=O)c1cccc(NC(=O)c2ccc(NC3(C)COC3)nc2N2CCC3(CC2)CC3)c1 [Example 102-26, N-(3-(N-(tert-butyl)sulfamoyl)phenyl)-6-((3-methyloxetan-3-yl)amino)-2-(6-azaspiro[2.5]octan-6-yl)nicotinamide]
